Experimental data taken from patent publication US10730863B2, “Bridged bicyclic compounds as farnesoid X receptor modulators” (BRISTOL-MYERS SQUIBB COMPANY, priority 2017, dated 2020).

Biological target: FXR (Homo sapiens (Human), UniProt Q96RI1)
Test: FXR EC50 (FXR agonist activity reported with each example)
Type: cell-based

Chain of FXR (Q96RI1 262-486): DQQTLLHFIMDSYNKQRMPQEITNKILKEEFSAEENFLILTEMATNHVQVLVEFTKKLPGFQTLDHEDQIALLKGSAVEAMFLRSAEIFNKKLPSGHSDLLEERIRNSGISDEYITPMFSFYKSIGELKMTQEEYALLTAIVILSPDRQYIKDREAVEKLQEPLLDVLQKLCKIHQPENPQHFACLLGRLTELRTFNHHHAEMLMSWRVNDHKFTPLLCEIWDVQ

For `COc1nc(C(=O)O)cc2ccc(/C=C/C34CCC(OCc5c(-c6c(Cl)cncc6Cl)noc5C5CC5)(CC3)CC4)cc12` [Example 517, (E)-7-(2-(4-((5-cyclopropyl-3-(3,5-dichloropyridin-4-yl)isoxazol-4-yl)methoxy)bicyclo[2.2.2]octan-1-yl)vinyl)-1-methoxyisoquinoline-3-carboxylic acid], the EC50 was 42 nM.

In the case of `COCCOc1cc(OCC23CCC(OCc4c(-c5c(Cl)cncc5Cl)noc4C4CC4)(CC2)CC3)cnc1C(=O)O` [Example 336], the EC50 is reported as 160 nM.

With `Clc1cccc(Cl)c1-c1noc(C2CC2)c1COCC12CCC(c3cccc(-c4nnn[nH]4)c3)(CC1)OC2` [Example 220, 4-(((1-(3-(1H-tetrazol-5-yl)phenyl)-2-oxabicyclo[2.2.2]octan-4-yl)methoxy)methyl)-5-cyclopropyl-3-(2,6-dichlorophenyl)isoxazole] the EC50 was 870 nM.

Molecule `O=C(O)c1cc(F)c2nc(C(O)C34CCC(OCc5c(-c6c(Cl)cccc6Cl)noc5C5CC5)(CC3)CC4)sc2c1` (stereo not shown) [Example 122, 2-((4-((5-cyclopropyl-3-(2,6-dichlorophenyl)isoxazol-4-yl)methoxy)bicyclo[2.2.2]octan-1-yl)(hydroxy)methyl)-4-fluorobenzo[d]thiazole-6-carboxylic acid] has an EC50 of 1000 nM.

With `CS(=O)(=O)NC(=O)c1cc(C(F)(F)F)c2cc(OCC34CCC(OCc5c(-c6c(Cl)cncc6Cl)noc5C5CC5)(CC3)CC4)ccc2n1` [Example 286] the EC50 was 19 nM.

In the case of `Cn1nc(C(=O)O)c2ccc(C34CCC(OCc5c(-c6c(Cl)cncc6Cl)noc5C5CC5)(CC3)CC4)nc21` [Example 365], the EC50 is reported as 49 nM.

`CCOc1cc(OCC23CCC(OCc4c(-c5ccccc5C(F)(F)F)noc4C4CC4)(CC2)CC3)cnc1C(N)=O` [Example 299] showed an EC50 of 2300 nM.

`O=C(O)c1ccc2nc(C34CCC(OCc5c(-c6ccccc6C(F)(F)F)noc5C5CC5)(CC3)CC4)sc2c1` [Example 6, 2-(4-((5-cyclopropyl-3-(2-(trifluoromethyl)phenyl)isoxazol-4-yl)methoxy)bicyclo[2.2.2]octan-1-yl)benzo[d]thiazole-6-carboxylic acid] was tested, and the EC50 was 4200 nM.

Molecule `O=C(O)c1cccc(-c2noc(C34CCC(OCc5c(-c6c(Cl)cncc6Cl)noc5C5CC5)(CC3)CC4)n2)c1F` [Example 71, 3-(5-(4-((5-Cyclopropyl-3-(3,5-dichloropyridin-4-yl)isoxazol-4-yl)methoxy)bicyclo[2.2.2]octan-1-yl)-1,2,4-oxadiazol-3-yl)-2-fluorobenzoic acid] has an EC50 of 69 nM.

For `COc1cc(-c2noc(C34CCC(OCc5c(-c6c(Cl)cncc6Cl)noc5C5CC5)(CC3)CC4)n2)cc(C(=O)O)n1` [Example 257, 4-(5-(4-((5-cyclopropyl-3-(3,5-dichloropyridin-4-yl)isoxazol-4-yl)methoxy)bicyclo[2.2.2]octan-1-yl)-1,2,4-oxadiazol-3-yl)-6-methoxypicolinic acid], the EC50 was 79 nM.

`O=C(O)c1cc(F)c2nc(C34CCC(OCc5c(-c6c(Cl)cncc6Cl)noc5C5CC5)(CC3)CC4)ccc2c1` [Example 369] gave an EC50 of 41 nM.

Molecule `O=C(O)c1cnc(C#CC23CCC(OCc4c(-c5c(Cl)cncc5Cl)noc4C4CC4)(CC2)CC3)cc1C(F)(F)F` [Example 374] has an EC50 of 130 nM.

`O=C(O)c1ccnc(OCC23CCC(OCc4c(-c5c(Cl)cccc5Cl)noc4C4CC4)(CC2)CC3)c1` [Example 111, 2-((4-((5-cyclopropyl-3-(2,6-dichlorophenyl)isoxazol-4-yl)methoxy)bicyclo[2.2.2]octan-1-yl)methoxy)isonicotinic acid] was tested, and the EC50 was 110 nM.

`O=C(O)c1cncc(OCC23CCC(OCc4c(-c5c(Cl)cccc5Cl)noc4C4CC4)(CC2)CC3)c1` [Example 109, 5-((4-((5-cyclopropyl-3-(2,6-dichlorophenyl)isoxazol-4-yl)methoxy)bicyclo[2.2.2]octan-1-yl)methoxy)nicotinic acid] was tested, and the EC50 was 150 nM.

With `O=C(O)c1cc(C(F)(F)F)c2cc(OCC34CCC(/C=C/c5c(-c6c(Cl)cncc6Cl)noc5C5CC5)(CC3)CO4)ccc2n1` [Example 500, (E)-6-((4-(2-(5-cyclopropyl-3-(3,5-dichloropyridin-4-yl)isoxazol-4-yl)vinyl)-2-oxabicyclo[2.2.2]octan-1-yl)methoxy)-4-(trifluoromethyl)quinoline-2-carboxylic acid] the EC50 was 160 nM.

`O=C(O)c1ccc(-c2noc(C34CCC(/C=C\c5c(-c6c(Cl)cccc6Cl)noc5C5CC5)(CC3)CC4)n2)cc1` [Example 164] gave an EC50 of 1600 nM.

With `O=C(O)c1cc(OC2CCC2)c2cc(OCC34CCC(OCc5c(-c6c(Cl)cncc6Cl)noc5C5CC5)(CC3)CC4)cc(F)c2n1` [Example 308, 4-cyclobutoxy-6-((4-((5-cyclopropyl-3-(3,5-dichloropyridin-4-yl)isoxazol-4-yl)methoxy)bicyclo[2.2.2]octan-1-yl)methoxy)-8-fluoroquinoline-2-carboxylic acid] the EC50 was 12 nM.

`N#CC12CCC(OCc3c(-c4c(Cl)cccc4Cl)noc3C3CC3)(CC1)CC2` [Intermediate 70A, 4-((5-Cyclopropyl-3-(2,6-dichlorophenyl)isoxazol-4-yl)methoxy)bicyclo[2.2.2]octane-1-carbonitrile] showed an EC50 of 470 nM.

`O=C(O)c1ccc(-c2noc(C34CCC(C=Cc5c(-c6c(Cl)cccc6Cl)noc5C5CC5)(CC3)C4)n2)cc1` [Example 226, 4-(5-(4-(2-(5-cyclopropyl-3-(2,6-dichlorophenyl)isoxazol-4-yl)vinyl)bicyclo[2.2.1]heptan-1-yl)-1,2,4-oxadiazol-3-yl)benzoic acid] was tested, and the EC50 was 420 nM.

With `O=C(O)c1cccn2c(C#CC34CCC(OCc5c(-c6c(Cl)cncc6Cl)noc5C5CC5)(CC3)CC4)cnc12` [Example 397] the EC50 was 48 nM.

Molecule `Cc1nc(OCC23CCC(OCc4c(-c5c(Cl)cncc5Cl)noc4C4CC4)(CC2)CC3)sc1C(=O)O` [Example 318] has an EC50 of 180 nM.

Work on `OCc1noc(C23CCC(OCc4c(-c5c(Cl)cccc5Cl)noc4C4CC4)(CC2)CC3)n1` [Example 73, (5-(4-((5-cyclopropyl-3-(2,6-dichlorophenyl)isoxazol-4-yl)methoxy)bicyclo[2.2.2]octan-1-yl)-1,2,4-oxadiazol-3-yl)methanol] yielded an EC50 of 600 nM.

`O=C(O)c1ccc(NC(=S)C23CCC(COCc4c(-c5c(Cl)cccc5Cl)noc4C4CC4)(CC2)CC3)c(Cl)c1` [Example 171, 3-chloro-4-(4-(((5-cyclopropyl-3-(2,6-dichlorophenyl)isoxazol-4-yl)methoxy)methyl)bicyclo[2.2.2]octane-1-carbothioamido)benzoic acid] showed an EC50 of 4700 nM.

Work on `O=C(O)c1ccc(OCC23CCC(OCc4c(-c5c(Cl)cncc5Cl)noc4C4CC4)(CC2)CC3)c(F)c1` [Example 276, 4-((4-((5-cyclopropyl-3-(3,5-dichloropyridin-4-yl)isoxazol-4-yl)methoxy)bicyclo[2.2.2]octan-1-yl)methoxy)-3-fluorobenzoic acid] yielded an EC50 of 170 nM.

`COc1ccc(-c2noc(C34CCC(OCc5c(-c6ccccc6C(F)(F)F)noc5C5CC5)(CC3)CC4)n2)cc1C(=O)O` [Example 31] gave an EC50 of 370 nM.

Molecule `O=C(O)c1cccc(NCC23CCC(OCc4c(-c5ccccc5OC(F)(F)F)noc4C4CC4)(CC2)CC3)c1` [Example 85] has an EC50 of 610 nM.

`O=C(O)c1cc(OC2CCC2)c2cc(C#CC34CCC(OCc5c(-c6c(Cl)cncc6Cl)noc5C5CC5)(CC3)CC4)ccc2n1` [Example 402] showed an EC50 of 52 nM.

In the case of `O=C(O)c1ccc2[nH]c(C34CCC(OCc5c(-c6c(Cl)cccc6Cl)noc5C5CC5)(CC3)CC4)nc2c1` [Example 17, 2-(4-((5-cyclopropyl-3-(2,6-dichlorophenyl)isoxazol-4-yl)methoxy)bicyclo[2.2.2]octan-1-yl)-1H-benzo[d]imidazole-5-carboxylic acid], the EC50 is reported as 2700 nM.

`COc1ccc(-c2noc(C34CCC(/C=C/c5c(-c6c(Cl)cncc6Cl)noc5C5CC5)(CC3)CC4)n2)cc1C(=O)NS(=O)(=O)C1CC1` [Example 439, (E)-5-(5-(4-(2-(5-cyclopropyl-3-(3,5-dichloropyridin-4-yl)isoxazol-4-yl)vinyl)bicyclo[2.2.2]octan-1-yl)-1,2,4-oxadiazol-3-yl)-N-(cyclopropylsulfonyl)-2-methoxybenzamide] was tested, and the EC50 was 280 nM.

In the case of `O=C(O)c1c(F)ccc(-c2noc(C34CCC(OCc5c(-c6c(Cl)cncc6Cl)noc5C5CC5)(CC3)CC4)n2)c1F` [Example 248, 3-(5-(4-((5-cyclopropyl-3-(3,5-dichloropyridin-4-yl)isoxazol-4-yl)methoxy)bicyclo[2.2.2]octan-1-yl)-1,2,4-oxadiazol-3-yl)-2,6-difluorobenzoic acid], the EC50 is reported as 1100 nM.

Molecule `O=C(O)c1cc(OC2COC2)c2cc(OCC34CCC(OCc5c(-c6c(Cl)cncc6Cl)noc5C5CC5)(CC3)CC4)cc(F)c2n1` [Example 312, 6-((4-((5-cyclopropyl-3-(3,5-dichloropyridin-4-yl)isoxazol-4-yl)methoxy)bicyclo[2.2.2]octan-1-yl)methoxy)-8-fluoro-4-(oxetan-3-yloxy)quinoline-2-carboxylic acid] has an EC50 of 47 nM.

Work on `NC(=O)c1noc(C23CCC(OCc4c(-c5c(Cl)cccc5Cl)noc4C4CC4)(CC2)CC3)n1` [Example 74, 5-(4-((5-cyclopropyl-3-(2,6-dichlorophenyl)isoxazol-4-yl)methoxy)bicyclo[2.2.2]octan-1-yl)-1,2,4-oxadiazole-3-carboxamide] yielded an EC50 of 520 nM.

For `O=C(O)c1cccc(-c2noc(C34CCC(OCc5c(-c6ccccc6OC(F)(F)F)noc5C5CC5)(CC3)CC4)n2)c1` [Example 1, 3-(5-(4-((5-cyclopropyl-3-(2-(trifluoromethoxy)phenyl)isoxazol-4-yl)methoxy)bicyclo[2.2.2]octan-1-yl)-1,2,4-oxadiazol-3-yl)benzoic acid], the EC50 was 110 nM.

Molecule `COc1cc(OCC23CCC(OCc4c(-c5c(Cl)cncc5Cl)noc4C4CC4)(CC2)CC3)nc(C(=O)O)c1` [Example 323] has an EC50 of 74 nM.

Work on `O=C(O)c1ccc(-c2noc(C34CCC(/C=C/c5c(-c6c(Cl)cccc6Cl)noc5C5CC5)(CC3)CC4)n2)cc1` [Example 160] yielded an EC50 of 51 nM.

In the case of `O=C(O)c1cccc(NC(=O)C23CCC(C=Cc4c(-c5c(Cl)cccc5Cl)noc4C4CC4)(CC2)CC3)c1` [Example 188], the EC50 is reported as 120 nM.

Work on `O=C(O)c1cc(-c2noc(C34CCC(OCc5c(-c6c(Cl)cccc6Cl)noc5C5CC5)(CC3)CC4)n2)ccc1F` [Example 64, 5-(5-(4-((5-Cyclopropyl-3-(2,6-dichlorophenyl)isoxazol-4-yl)methoxy)bicyclo[2.2.2]octan-1-yl)-1,2,4-oxadiazol-3-yl)-2-fluorobenzoic acid] yielded an EC50 of 140 nM.
